Experimental data published in EP1956016A1, “Bicyclic acyltryptophanols” (Bayer Schering Pharma Aktiengesellschaft, priority 2006, dated 2008).

What follows are compounds tested against T1, human FSH receptor (Homo sapiens, UniProt P23945) (assay: HTRF assay for measuring cAMP in cells (FSH antagonism)). Settings: hFSHR clone 16 cells (CHO cells stably transfected with the human FSH receptor); in the presence of 1 e-9 mol/l hFSH; 37°C for 2h.
T1 construct: expressed in transfected cells; host or cells: CHO cells (hFSHR clone 16)
T1 sequence (P23945 18-695): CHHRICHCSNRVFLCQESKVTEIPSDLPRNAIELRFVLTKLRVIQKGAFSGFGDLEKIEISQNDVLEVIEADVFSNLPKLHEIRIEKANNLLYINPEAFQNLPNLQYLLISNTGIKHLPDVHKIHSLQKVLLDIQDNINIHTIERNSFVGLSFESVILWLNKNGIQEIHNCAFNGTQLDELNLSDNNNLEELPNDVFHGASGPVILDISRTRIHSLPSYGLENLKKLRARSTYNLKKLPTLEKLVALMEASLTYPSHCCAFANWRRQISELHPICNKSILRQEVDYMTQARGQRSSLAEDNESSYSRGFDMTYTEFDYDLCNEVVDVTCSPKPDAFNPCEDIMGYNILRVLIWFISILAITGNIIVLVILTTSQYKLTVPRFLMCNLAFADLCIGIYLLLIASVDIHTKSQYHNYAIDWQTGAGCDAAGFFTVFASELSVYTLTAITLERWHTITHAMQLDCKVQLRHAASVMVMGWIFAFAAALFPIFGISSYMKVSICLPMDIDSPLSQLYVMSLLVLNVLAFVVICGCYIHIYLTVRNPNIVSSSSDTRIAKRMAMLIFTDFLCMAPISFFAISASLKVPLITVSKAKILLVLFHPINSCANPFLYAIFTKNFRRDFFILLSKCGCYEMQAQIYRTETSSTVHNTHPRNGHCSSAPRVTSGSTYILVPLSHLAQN
Assay type: cell-based
Protocol: HTRF assay for measuring cAMP in cells
The method is based on a competitive immunoassay between native cAMP, which has been produced by the cells, and cAMP which is labelled with XL665. The tracer binding was visualized by a monoclonal antibody, anti-cAMP labelled with cryptate [HTRF = homogeneous time-resolved fluorescence].
The specific signal is inversely proportional to the cAMP concentration of the samples employed.
The 665nm/ 620nm fluorescence ratio was evaluated.
The following material was used: 96-well plates for the tissue culture, 96-well plates with black edge and black base (e.g. Fluotrac 600 from Greiner), 96-well plates for the substance dilutions of polypropylene and CAMP Femtomolar (4000wells Kit, CIS Bio International # 62AM1PEC).
The following reagents were used: BSA (bovine serum albumin) Fraction V protease-free, IBMX (3-isobutyl-1-methylxanthine), hFSH (human follicle stimulating hormone), Triton X-100 analytical grade, potassium fluoride analytical grade, G 418 (Geneticin) and Accutase.
Buffer 1 (washing and testing buffer) contained PBS, 1 mM CaCl2, 1 mM MgCl2, 0.2% glucose; 0.1% BSA, 1 mM IBMX.
Buffer 2 (2x lysis buffer) contained 1 % Triton X-100 in PBS (without CaCl2 and MgCl2).
Buffer 3 (assay buffer) contained 50 mM potassium phosphate buffer (pH 7.0); 800 mM potassium fluoride; 0.2% BSA (always added fresh).
On day 1, the cells were seeded in 96-well plates (3x10^4 cells per well hFSHR clone 16 cells (CHO cells stably transfected with the human FSH receptor in 150 µl of medium). The next day, test substance dilutions were made up. For this purpose, all the substances were diluted in ice-cold buffer 1 (with or without hFSH), and the substance dilutions were placed on ice until applied to the cells.
The cell supernatant was then aspirated off, and the cells were washed 2x with 200 µl of buffer 1. The cells were treated with 60 µl of the appropriate substance concentrations at 37°C for 2h. The cells were then lysed with 60 µl of buffer 2 (put onto the supernatant) (on a plate shaker at RT for 30 min).
The test conjugates (XL-665 and anti-cAMP cryptate) were diluted in buffer 3 in accordance with the manufacturers' information. The actual mixture for measurement was pipetted into a black 96-well plate (in each case 15 µl of the cell lysate diluted with 35 µl of buffer 1; firstly 25 µl of XL-665 conjugate were pipetted and, after 10 min, 25 µl of the anti-cAMP cryptate were added). This is followed by incubation at RT for 90 minutes. The measurement was carried out in a PheraStar (BMG).
Tissue culture conditions
1) hFSHr clone 16 Ham's F12 PSG 10% FCS 700 µg/ml G 418 (Geneticin) from PAA.
Dose-effect curve (hFSH) for the human receptor: 1 e-8, 3e-9, 1 e-9, 3e-10, 1e-10, 3e-11, 1e-11, 3e-12 mol/l.
The test substances were employed in suitable dilutions in the absence (test for agonism) and in the presence of 1 e-9 mol/l hFSH.
The values of the well ratio were averaged and then entered directly in SigmaPlot versus the concentrations. The maximum and minimum values were determined for each plate, and half the difference is to be regarded as IC50.
Work on `Cc1ccccc1C#Cc1cc2c(c(C(=O)N[C@@H](CO)Cc3c[nH]c4ccccc34)c1)OCC=C2` [Example 4, 6-o-Tolylethynyl-2H-chromene-8-carboxylic acid [(R)-1-hydroxymethyl-2-(1H-indol-3-yl)-ethyl]-amide] yielded an IC50 of 450 nM. In the case of `C=CC1Cc2cc(-c3ccc(OC)c(OC)c3)cc(C(=O)N[C@@H](CO)Cc3c[nH]c4ccccc34)c2O1` (mixture of isomers) [Example 12, 5-(3,4-Dimethoxy-phenyl)-2-vinyl-2,3-dihydro-benzofuran-7-carboxylic acid [(R)-1-hydroxymethyl-2-(1H-indol-3-yl)-ethyl]-amide], the IC50 is reported as 350 nM. For `COc1cc(-c2cc3c(c(C(=O)N[C@@H](CO)Cc4c[nH]c5ccccc45)c2)OCC3)cc(F)c1F` [Example 20, 5-(3,4-Difluoro-5-methoxy-phenyl)-2,3-dihydro-benzofuran-7-carboxylic acid [(R)-2-hydroxy-1-(1H-indol-3-ylmethyl)-ethyl]-amide], the IC50 was 2000 nM. With `CNC(=O)c1ccc(-c2cc3c(c(C(=O)N[C@@H](CO)Cc4c[nH]c5ccccc45)c2)OCC=C3)cc1Cl` [Example 2, 6-(3-Chloro-4-methylcarbamoyl-phenyl)-2H-chromene-8-carboxylic acid [(R)-2-hydroxy-1-(1H-indol-3-ylmethyl)-ethyl]-amide] the IC50 was 130 nM. In the case of `CNC(=O)c1cc(F)cc(-c2cc3c(c(C(=O)N[C@@H](CO)Cc4c[nH]c5ccccc45)c2)OC(C)(C)C=C3)c1` [Example 8, 6-(3-Fluoro-5-methylcarbamoyl-phenyl)-2,2-dimethyl-2H-chromene-8-carboxylic acid [(R)-2-hydroxy-1-(1 H-indol-3-yl-methyl)-ethyl]-amide], the IC50 is reported as 14 nM. For `CCC1Cc2cc(-c3ccc(OC)c(OC)c3)cc(C(=O)N[C@@H](CO)Cc3c[nH]c4ccccc34)c2O1` (stereo partly drawn) [Example 13, 5-(3,4-Dimethoxy-phenyl)-2-ethyl-2,3-dihydro-benzofuran-7-carboxylic acid [(R)-1-hydroxymethyl-2-(1H-indol-3-yl)-ethyl]-amide], the IC50 was 150 nM. `CNC(=O)c1ccc(-c2cc3c(c(C(=O)N[C@@H](CO)Cc4c[nH]c5ccccc45)c2)OCCO3)cc1Cl` [Example 14, 7-(3-Chloro-4-methylcarbamoyl-phenyl)-2,3-dihydro-benzo[1,4]dioxine-5-carboxylic acid [(R)-2-hydroxy-1-(1 H-indol-3-ylmethyl)-ethyl]-amide] showed an IC50 of 450 nM.
